In US20240417688A1, “METHODS AND SYSTEMS FOR ADIPOCYTES DIFFERENTIATION” (priority 2021, published 2024):

Tested on: Mesenchymal Stem cells (MSCs)
Assay: Oil Red O staining and quantification of adipogenic differentiation of MSCs in 2D culture
Format: cell-based
Settings: FIG. 3; plate reader
Experimental: Palmitoleic, erusic, elaidic, and oleic acids are diluted to 20 mM concentration in ethanol absolute. Each FFA is prepared separately, following which, all […] FFAs are mixed together at equal volumes to create the FFA stock mix.
The stock mix is then added to cell growth medium at a concentration of 100 uM per FFA (dilution of 1:50 from stock mix).
Food grade sunflower lecithin is suspended in PBS 1× at 50 mg/ml concentration, and the suspension is sonicated at medium speed for 1-2 min, to then reach a homogenized solution then filtered through a 0.22 μm filter. The lecithin emulsion is added to cell growth medium at a concentration of 1 mg/ml (dilution of 1:50 from stock solution).
The two mediums were refreshed every 3 days and Oil red O quantification was performed on day 8 of contact.
It is noted, that high cell density can cause a curling effect that produced a cell aggregate, reveling underlying cells. A. (negative control culture)—The cell aggregate falsely stained by ORO (A2); the aggregation reviles few cells on the surface of the well (A1). B. (4FFAs+Insulin treatment) Cells produce a sheet that detaches from the surface (B1), with underlying differentiating cells (B3). C. […]
Turning now to FIG. 3, where Oil Red O (ORO) quantification was carried out after extraction using 2-propanol. ORO was extracted and quantified by absorption reading in a plate reader at 492 nm. […]

Substance: insulin
- Oil Red O (ORO) quantity, absorption at 492 nm after 2-propanol extraction, versus control: no statistical difference than control
